pIC50: −log10 of the molar value. Where a name gives a salt, the structure may show the parent alone.
Experiments:
[1] = system: Phosphorylated Ribosomal Protein S6 (RPS6) in THP-1 cells; test: THP-1 RPS6 ELISA Assay; type: cell-based; conditions: Homo sapiens, 2 hours compound, 10 nM MCP-1 for 15 minutes, Phospho-RPS6 ELISA, read-out: PI3Kγ_THP1_RPS6_ELISA IC50
Method: Example A. THP-1 RPS6 ELISA Assay To measure the Phosphorylated Ribosomal Protein S6 (RPS6) in cell lysates, THP-1 cells (Human Acute Monocytic Leukemia) are purchased from ATCC (Manassas, Va.) and maintained in RPMI with 10% FBS (Gibco/Life Technologies, Carlsbad, Calif.). For the assay, THP-1 cells are serum starved overnight in RPMI, then plated in RPMI (2×10^5 cells/well in 90 μL) into 96-well flat-bottom tissue culture treated plates (Corning, Corning, N.Y.), in the presence or absence of a concentration range of test compounds. Covered plates are incubated for 2 hours at 37° C., 5% CO2 then treated with or without 10 nM MCP-1 (MYBioSource, San Diego, Calif.) for 15 minutes at 37° C., 5% CO2. Plates are centrifuged at 1600 RPM and supernatants are removed. Cells are lysed in Lysis Buffer (Cell Signaling, Danvers, Mass.) with Protease Inhibitor (Calbiochem/EMD, Germany), PMSF (Sigma, St Louis Mo.), HALTS (Thermo Fisher, Rockford, Ill.) for 30 min on wet ice. Cell lysates are frozen at −80° C. before testing. The lysates are tested in the Human/Mouse/Rat Phospho-RPS6 ELISA (R&D Systems, Inc. Minn, Minn.). The plate is measured using a microplate reader (SpectraMax M5-Molecular Devices, LLC Sunnyvale, Calif.) set to 450 nm with a wavelength correction of 540. IC50 determination is performed by fitting the curve of inhibitor percent inhibition versus the log of the inhibitor concentration using the GraphPad Prism 5.0 software.

[2] = biological target: PI3Kδ (p110δ/p85α) Recombinant Human Protein (Homo sapiens (Human), UniProt O00329); test: PI3Kδ Scintillation Proximity Assay; type: biochemical; conditions: 20 μM PIP2, 2 μM ATP, 3.4 nM PI3Kδ, 120 min
Description: Example C. PI3Kδ Scintillation Proximity Assay
(§1) [γ-^33P]ATP (10 mCi/mL) and Wheat Germ Agglutinin (WGA) YSi SPA Scintillation Beads was purchased from Perkin Elmer (Waltham, Mass.). Lipid kinase substrate, D-myo-Phosphatidylinositol 4,5-bisphosphate (PtdInS(4,5)P2)D (+)-sn-1,2-di-O-octanoylglyceryl, 3-O-phospho linked (PIP2), CAS 204858-53-7, was purchased from Echelon Biosciences (Salt Lake City, Utah). PI3Kδ (p110δ/p85α) Recombinant Human Protein was purchased from Eurofins (St Charles, Mo.). ATP, MgCl2, DTT, EDTA, MOPS and CHAPS were purchased from Sigma Aldrich (St. Louis, Mo.).
(§2) The kinase reaction was conducted in polystyrene 384-well Greiner Bio-one white plate from Thermo Fisher Scientific in a final volume of 25 μL. Inhibitors were first diluted serially in DMSO and added to the plate wells before the addition of other reaction components. The final concentration of DMSO in the assay was 2%. The PI3Kδ assay was carried out at room temperature in 20 mM MOPS, pH 6.7, 10 mM MgCl2, 5 mM DTT and CHAPS 0.03%. Reactions were initiated by the addition of ATP, the final reaction mixture consisted of 20 μM PIP2, 2 μM ATP, 0.5 μCi [γ-^33P]ATP, 3.4 nM PI3Kδ. Reactions were incubated for 120 min and terminated by the addition of 40 μL SPA beads suspended in quench buffer: 163 mM potassium phosphate pH 7.8, 20% glycerol, 25 mM EDTA. The final concentration of SPA beads is 1.0 mg/mL. After the plate sealing, plates were shaken overnight at room temperature and centrifuged at 1500 rpm for 10 min, the radioactivity of the product was determined by scintillation counting on Topcount (PerkinElmer). IC50 determination was performed by fitting the curve of percent of the solvent control activity versus the log of the inhibitor concentration using the GraphPad Prism 6.0 software.

[3] = biological target: PI3Kγ (p110γ) Recombinant Human Protein (Homo sapiens (Human), UniProt P48736); test: PI3K-γ Scintillation Proximity Assay; type: biochemical; conditions: 20 μM PIP2, 2 μM ATP, 13 nM PI3Kγ, 120 min
Description: Example B. PI3K-γ Scintillation Proximity Assay
as §1, with “PI3Kγ (p110γ)” for “PI3Kδ (p110δ/p85α)”, “Life technology (Grand Island, N.Y.).” for “Eurofins (St Charles, Mo.).”
as §2, with “PI3Kγ” for “PI3Kδ”, “[γ-^33p]ATP, 13” for “[γ-^33P]ATP, 3.4”, “PI3Kγ.” for “PI3Kδ.”

PI3Kδ (p110δ/p85α) Recombinant Human Protein, sequence (O00329 whole entry): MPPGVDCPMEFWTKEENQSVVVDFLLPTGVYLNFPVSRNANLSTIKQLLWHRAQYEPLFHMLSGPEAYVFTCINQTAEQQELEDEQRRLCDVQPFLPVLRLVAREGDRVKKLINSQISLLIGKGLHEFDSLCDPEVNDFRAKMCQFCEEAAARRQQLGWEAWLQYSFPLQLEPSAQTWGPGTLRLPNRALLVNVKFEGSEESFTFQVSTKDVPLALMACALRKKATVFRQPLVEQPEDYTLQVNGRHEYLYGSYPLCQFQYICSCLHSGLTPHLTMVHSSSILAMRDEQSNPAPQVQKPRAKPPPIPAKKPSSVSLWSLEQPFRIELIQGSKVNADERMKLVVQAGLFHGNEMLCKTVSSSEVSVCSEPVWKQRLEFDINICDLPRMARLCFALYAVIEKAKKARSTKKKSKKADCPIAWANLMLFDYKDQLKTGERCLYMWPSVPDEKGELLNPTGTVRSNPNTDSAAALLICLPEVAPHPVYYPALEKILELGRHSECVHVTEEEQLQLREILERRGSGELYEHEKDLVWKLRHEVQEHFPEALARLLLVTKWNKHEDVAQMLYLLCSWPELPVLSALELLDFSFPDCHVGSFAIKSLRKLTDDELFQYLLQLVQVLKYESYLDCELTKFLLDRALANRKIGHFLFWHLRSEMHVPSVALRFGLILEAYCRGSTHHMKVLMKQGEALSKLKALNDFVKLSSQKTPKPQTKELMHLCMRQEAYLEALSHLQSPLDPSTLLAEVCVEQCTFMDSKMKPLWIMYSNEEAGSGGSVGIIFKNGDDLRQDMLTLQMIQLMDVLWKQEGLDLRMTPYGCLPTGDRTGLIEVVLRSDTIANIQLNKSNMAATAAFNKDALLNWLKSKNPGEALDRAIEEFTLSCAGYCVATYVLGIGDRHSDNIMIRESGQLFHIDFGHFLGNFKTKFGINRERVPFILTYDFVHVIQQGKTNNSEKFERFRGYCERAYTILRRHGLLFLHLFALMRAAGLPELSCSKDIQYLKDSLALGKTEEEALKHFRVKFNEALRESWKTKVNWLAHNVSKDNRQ
PI3Kδ (p110δ/p85α) Recombinant Human Protein, sequence (P27986 whole entry partner): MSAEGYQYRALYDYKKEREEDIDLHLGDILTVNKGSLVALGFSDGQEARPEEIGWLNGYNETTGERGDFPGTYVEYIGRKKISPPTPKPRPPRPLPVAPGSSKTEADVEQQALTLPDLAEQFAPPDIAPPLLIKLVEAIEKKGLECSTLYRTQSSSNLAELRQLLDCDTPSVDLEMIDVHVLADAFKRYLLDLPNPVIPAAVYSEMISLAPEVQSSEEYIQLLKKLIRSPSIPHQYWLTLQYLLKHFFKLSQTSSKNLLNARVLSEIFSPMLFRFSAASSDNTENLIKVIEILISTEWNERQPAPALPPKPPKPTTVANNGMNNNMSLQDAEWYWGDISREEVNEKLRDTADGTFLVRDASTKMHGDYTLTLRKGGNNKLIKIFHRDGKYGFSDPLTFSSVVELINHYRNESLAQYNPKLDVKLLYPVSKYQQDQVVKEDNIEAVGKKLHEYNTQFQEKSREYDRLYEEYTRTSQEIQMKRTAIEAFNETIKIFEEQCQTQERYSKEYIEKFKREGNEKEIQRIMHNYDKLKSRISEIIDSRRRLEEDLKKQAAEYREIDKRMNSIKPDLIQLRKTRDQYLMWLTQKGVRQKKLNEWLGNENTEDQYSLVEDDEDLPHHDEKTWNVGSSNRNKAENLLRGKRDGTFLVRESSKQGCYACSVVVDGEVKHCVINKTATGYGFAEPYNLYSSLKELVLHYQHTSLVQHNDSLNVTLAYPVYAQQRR
PI3Kγ (p110γ) Recombinant Human Protein, sequence (P48736 whole entry): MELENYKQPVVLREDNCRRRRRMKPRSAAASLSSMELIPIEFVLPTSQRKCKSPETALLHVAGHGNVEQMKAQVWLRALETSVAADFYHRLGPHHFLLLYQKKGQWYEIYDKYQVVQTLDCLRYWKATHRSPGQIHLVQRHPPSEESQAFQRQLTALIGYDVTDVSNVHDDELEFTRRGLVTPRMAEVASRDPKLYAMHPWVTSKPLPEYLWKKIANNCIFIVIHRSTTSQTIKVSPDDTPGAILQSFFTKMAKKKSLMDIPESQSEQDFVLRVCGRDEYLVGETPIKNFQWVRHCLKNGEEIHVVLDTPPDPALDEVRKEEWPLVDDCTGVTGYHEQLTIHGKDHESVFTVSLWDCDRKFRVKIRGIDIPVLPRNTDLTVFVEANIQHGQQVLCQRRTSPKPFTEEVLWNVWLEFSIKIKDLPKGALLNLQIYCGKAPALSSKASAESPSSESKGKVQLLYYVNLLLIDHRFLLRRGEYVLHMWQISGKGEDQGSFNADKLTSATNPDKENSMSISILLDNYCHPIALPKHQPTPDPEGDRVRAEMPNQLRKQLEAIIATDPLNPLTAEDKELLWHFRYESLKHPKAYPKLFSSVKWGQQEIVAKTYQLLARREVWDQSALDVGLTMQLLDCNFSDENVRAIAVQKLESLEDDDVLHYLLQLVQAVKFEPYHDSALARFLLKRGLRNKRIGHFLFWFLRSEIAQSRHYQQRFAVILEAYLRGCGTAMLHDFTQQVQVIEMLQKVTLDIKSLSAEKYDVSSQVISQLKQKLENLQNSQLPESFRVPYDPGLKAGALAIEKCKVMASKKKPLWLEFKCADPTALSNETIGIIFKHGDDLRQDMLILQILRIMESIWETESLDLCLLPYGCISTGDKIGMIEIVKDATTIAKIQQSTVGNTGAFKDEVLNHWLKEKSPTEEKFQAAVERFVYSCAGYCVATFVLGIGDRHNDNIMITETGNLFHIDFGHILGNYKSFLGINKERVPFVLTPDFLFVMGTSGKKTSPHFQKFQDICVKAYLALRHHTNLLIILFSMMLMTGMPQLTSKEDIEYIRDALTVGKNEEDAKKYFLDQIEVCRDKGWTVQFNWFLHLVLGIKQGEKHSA

SMILES | pIC50 [1] | pIC50 [2] | pIC50 [3]
CC(C)N1Cc2cc(-c3cnc4c(N)ncnn34)ccc2C1=O [Example 14, 5-(4-Aminoimidazo[2,1-f][1,2,4]triazin-7-yl)-2-isopropylisoindolin-1-one trifluoroacetate salt] | ≤ 6.00 | ≤ 5.70 | ≥ 7.00
CC(=O)c1cc(-c2cnc3c(N)ncnn23)cc2c1C(=O)N([C@@H](C)C1CC1)C2 [Example 15, (S)-7-Acetyl-5-(4-aminoimidazo[2,1-f][1,2,4]triazin-7-yl)-2-(1-cyclopropylethyl)isoindolin-1-one trifluoroacetate salt] | ≤ 6.00 | ≥ 6.30 | ≥ 7.00
C[C@@H](C1CC1)N1Cc2cc(-c3cnc4c(N)ncnn34)cc(C(C)(C)O)c2C1=O [Example 17, (S)-5-(4-Aminoimidazo[2,1-f][1,2,4]triazin-7-yl)-2-(1-cyclopropylethyl)-7-(2-hydroxypropan-2-yl)isoindolin-1-one trifluoroacetate salt] | > 6.00 | > 5.70 | ≥ 7.00
CC(C1CC1)n1cc2cc(-c3cnc4c(N)ncnn34)cnc2n1 (stereo not drawn) [Example 25, 7-(2-(1-Cyclopropylethyl)-2H-pyrazolo[3,4-b]pyridin-5-yl)imidazo[2,1-f][1,2,4]triazin-4-amine trifluoroacetate salt] | ≤ 6.00 | ≤ 5.70 | ≥ 7.00
C[C@@H](C1CC1)N1Cc2cc(-c3cnc4c(N)nc(C(=O)NC5CCOCC5)cn34)cc(S(C)(=O)=O)c2C1=O [Example 29, (S)-8-Amino-3-(2-(1-cyclopropylethyl)-7-(methylsulfonyl)-1-oxoisoindolin-5-yl)-N-(tetrahydro-2H-pyran-4-yl)imidazo[1,2-a]pyrazine-6-carboxamide, trifluoroacetate salt] | > 6.00 | ≥ 6.30 | ≥ 7.00
C[C@@H](C1CC1)N1Cc2cc(-c3cnc4c(N)nc(C(=O)N5CCC5)cn34)cc(S(C)(=O)=O)c2C1=O [Example 29a, (S)-5-(8-Amino-6-(azetidine-1-carbonyl)imidazo[1,2-a]pyrazin-3-yl)-2-(1-cyclopropylethyl)-7-(methylsulfonyl)isoindolin-1-one, trifluoroacetate salt] | ≤ 6.00 | > 5.70 | ≥ 7.00
C[C@@H](C1CC1)N1Cc2cc(-c3cnc4c(N)nc(C(=O)N5CC(C)(C)C5)cn34)cc(S(C)(=O)=O)c2C1=O [Example 29c, (S)-5-(8-Amino-6-(3,3-dimethylazetidine-1-carbonyl)imidazo[1,2-a]pyrazin-3-yl)-2-(1-cyclopropylethyl)-7-(methylsulfonyl)isoindolin-1-one, trifluoroacetate salt] | > 6.00 | ≥ 6.30 | ≥ 7.00
C[C@@H](C1CC1)N1Cc2cc(-c3cnc4c(N)nc(C(=O)N5CC(F)(F)C5)cn34)cc(S(C)(=O)=O)c2C1=O [Example 29d, (S)-5-(8-Amino-6-(3,3-difluoroazetidine-1-carbonyl)imidazo[1,2-a]pyrazin-3-yl)-2-(1-cyclopropylethyl)-7-(methylsulfonyl)isoindolin-1-one, trifluoroacetate salt] | > 6.00 | ≥ 6.30 | ≥ 7.00
C[C@@H](C1CC1)N1Cc2cc(-c3cnc4c(N)nc(C(=O)NC5CC(O)C5)cn34)ccc2C1=O (stereo partly drawn) [Example 31, (S)-8-Amino-3-(2-(1-cyclopropylethyl)-1-oxoisoindolin-5-yl)-N-(3-hydroxycyclobutyl)imidazo[1,2-a]pyrazine-6-carboxamide, trifluoroacetate salt] | ≤ 6.00 | ≤ 5.70 | ≥ 7.00
Cc1ncc(-c2cn3c(-c4cc5c(c(S(C)(=O)=O)c4)C(=O)N([C@@H](C)C4CC4)C5)cnc3c(N)n2)s1 [Example 34, (S)-5-(8-Amino-6-(2-methylthiazol-5-yl)imidazo[1,2-a]pyrazin-3-yl)-2-(1-cyclopropylethyl)-7-(methylsulfonyl)isoindolin-1-one, trifluoroacetate salt] | ≥ 7.00 | ≥ 7.00 | ≥ 7.00
C[C@@H](C1CC1)N1Cc2cc(-c3cnc4c(N)nc(-c5cnn(C)c5)cn34)cc(S(C)(=O)=O)c2C1=O [Example 35, (S)-5-(8-Amino-6-(1-methyl-1H-pyrazol-4-yl)imidazo[1,2-a]pyrazin-3-yl)-2-(1-cyclopropylethyl)-7-(methylsulfonyl)isoindolin-1-one, trifluoroacetate salt] | ≥ 6.30 | ≥ 6.30 | ≥ 7.00
C[C@@H](C1CC1)N1Cc2cc(-c3cnc4c(N)nc(-c5ccnn5C)cn34)cc(S(C)(=O)=O)c2C1=O [Example 36, (S)-5-(8-Amino-6-(1-methyl-1H-pyrazol-5-yl)imidazo[1,2-a]pyrazin-3-yl)-2-(1-cyclopropylethyl)-7-(methylsulfonyl)isoindolin-1-one, trifluoroacetate salt] | ≥ 6.30 | ≥ 6.30 | ≥ 7.00
Cc1[nH]ncc1-c1cn2c(-c3cc4c(c(S(C)(=O)=O)c3)C(=O)N([C@@H](C)C3CC3)C4)cnc2c(N)n1 [Example 37, (S)-5-(8-Amino-6-(5-methyl-1H-pyrazol-4-yl)imidazo[1,2-a]pyrazin-3-yl)-2-(1-cyclopropylethyl)-7-(methylsulfonyl)isoindolin-1-one, trifluoroacetate salt] | > 6.00 | ≥ 6.30 | ≥ 7.00
C[C@@H](C1CC1)N1Cc2cc(-c3cnc4c(N)nc(-c5cn[nH]c5)cn34)cc(S(C)(=O)=O)c2C1=O [Example 38, (S)-5-(8-Amino-6-(1H-pyrazol-4-yl)imidazo[1,2-a]pyrazin-3-yl)-2-(1-cyclopropylethyl)-7-(methylsulfonyl)isoindolin-1-one, trifluoroacetate salt] | ≤ 6.00 | ≥ 6.30 | ≥ 7.00

Source: US11078204B2, “Heterocyclic derivatives as PI3K inhibitors” (Incyte Corporation, priority 2018, dated 2021)
